The OligoGym collection
Oligonucleotides are written 5' to 3', each unit as a sugar letter and its base; * is a phosphorothioate linkage, no mark a phosphodiester; rarer units and linkages stand in square brackets, end groups in braces. Plain capitals give the bases only. d = 2'-deoxy (DNA); r = 2'-OH (RNA)
Also: test concentration or dose not given here.

Target: not listed separately
Assay: reporter assay of Huesken 2005
Conditions: siRNA
For “sense rGrCrCrUrArCrGrGrGrArGrUrCrArArArGrGrUdTdT / antisense rArCrCrUrUrUrGrArCrUrCrCrCrGrUrArGrGrCdGdT”, the normalised inhibition (eCFP-eYFP dual reporter) was 91.5%.
Substance “sense rGrCrCrUrUrCrArUrCrCrArCrCrUrUrCrCrCrUdTdT / antisense rArGrGrGrArArGrGrUrGrGrArUrGrArArGrGrCdAdG” has a normalised inhibition (eCFP-eYFP dual reporter) of 85.7%.
“sense rGrGrCrArGrArCrUrArCrArGrUrUrUrCrUrUrUdTdT / antisense rArArArGrArArArCrUrGrUrArGrUrCrUrGrCrCdAdG” gave a normalised inhibition (eCFP-eYFP dual reporter) of 86%.
Substance “sense rGrGrCrArGrCrGrGrGrArGrArGrArGrCrArArCdTdT / antisense rGrUrUrGrCrUrCrUrCrUrCrCrCrGrCrUrGrCrCdCdC” has a normalised inhibition (eCFP-eYFP dual reporter) of 61.9%.
“sense rGrGrCrArGrGrArGrArUrArGrCrCrCrArGrGrGdTdT / antisense rCrCrCrUrGrGrGrCrUrArUrCrUrCrCrUrGrCrCdAdC” gave a normalised inhibition (eCFP-eYFP dual reporter) of 67.7%.
“sense rGrGrCrUrCrUrGrUrCrUrCrUrCrUrGrCrCrArCdTdT / antisense rGrUrGrGrCrArGrArGrArGrArCrArGrArGrCrCdAdC” showed a normalised inhibition (eCFP-eYFP dual reporter) of 45.8%.
Substance “sense rGrGrCrUrUrUrGrGrArGrCrCrCrUrUrCrUrGrCdTdT / antisense rGrCrArGrArArGrGrGrCrUrCrCrArArArGrCrCdTdA” has a normalised inhibition (eCFP-eYFP dual reporter) of 73.7%.
“sense rGrGrUrGrGrCrUrCrUrGrUrCrUrCrUrCrUrGrCdTdT / antisense rGrCrArGrArGrArGrArCrArGrArGrCrCrArCrCdGdG” showed a normalised inhibition (eCFP-eYFP dual reporter) of 71.5%.
In the case of “sense rGrUrCrCrCrUrGrArGrGrArGrCrCrCrUrUrArGdTdT / antisense rCrUrArArGrGrGrCrUrCrCrUrCrArGrGrGrArCdGdG”, the normalised inhibition (eCFP-eYFP dual reporter) is reported as 85.8%.
Work on “sense rGrUrCrGrUrUrCrGrUrGrGrUrCrGrUrUrUrCrAdTdT / antisense rUrGrArArArCrGrArCrCrArCrGrArArCrGrArCdCdA” yielded a normalised inhibition (eCFP-eYFP dual reporter) of 39.3%.
With “sense rUrArCrUrCrUrUrGrCrUrCrUrCrUrGrGrArGrUdTdT / antisense rArCrUrCrCrArGrArGrArGrCrArArGrArGrUrAdGdA” the normalised inhibition (eCFP-eYFP dual reporter) was 57.9%.
For “sense rUrArGrGrCrUrUrGrArGrGrGrArGrArGrUrUrGdTdT / antisense rCrArArCrUrCrUrCrCrCrUrCrArArGrCrCrUrAdAdA”, the normalised inhibition (eCFP-eYFP dual reporter) was 76.7%.
Substance “sense rUrCrArUrUrGrUrUrCrCrUrGrUrGrArArCrUrGdTdT / antisense rCrArGrUrUrCrArCrArGrGrArArCrArArUrGrAdAdA” has a normalised inhibition (eCFP-eYFP dual reporter) of 66.7%.
“sense rUrCrCrCrCrArUrArGrGrCrUrUrUrGrGrArGrCdTdT / antisense rGrCrUrCrCrArArArGrCrCrUrArUrGrGrGrGrAdTdA” gave a normalised inhibition (eCFP-eYFP dual reporter) of 35.8%.
Substance “sense rUrCrCrCrCrUrGrCrCrUrGrUrCrArGrGrGrGrUdTdT / antisense rArCrCrCrCrUrGrArCrArGrGrCrArGrGrGrGrAdAdA” has a normalised inhibition (eCFP-eYFP dual reporter) of 42.2%.
“sense rUrCrCrCrUrGrCrUrUrCrUrGrArGrArCrUrUrCdTdT / antisense rGrArArGrUrCrUrCrArGrArArGrCrArGrGrGrAdAdG” gave a normalised inhibition (eCFP-eYFP dual reporter) of 67.9%.
For “sense rUrGrArArGrCrUrGrGrUrCrUrGrUrGrGrCrArGdTdT / antisense rCrUrGrCrCrArCrArGrArCrCrArGrCrUrUrCrAdGdA”, the normalised inhibition (eCFP-eYFP dual reporter) was 44.4%.
Substance “sense rUrGrArGrArCrUrUrCrCrArUrCrUrCrUrArGrCdTdT / antisense rGrCrUrArGrArGrArUrGrGrArArGrUrCrUrCrAdGdA” has a normalised inhibition (eCFP-eYFP dual reporter) of 32.9%.
Substance “sense rUrGrCrCrCrArUrUrGrUrGrUrUrCrCrCrUrUrGdTdT / antisense rCrArArGrGrGrArArCrArCrArArUrGrGrGrCrAdGdG” has a normalised inhibition (eCFP-eYFP dual reporter) of 95.4%.
“sense rUrGrCrCrUrCrCrCrUrUrGrArGrGrCrGrUrCrUdTdT / antisense rArGrArCrGrCrCrUrCrArArGrGrGrArGrGrCrAdAdT” showed a normalised inhibition (eCFP-eYFP dual reporter) of 34.1%.
For “sense rUrGrGrArUrUrUrArGrGrCrUrUrGrArGrGrGrAdTdT / antisense rUrCrCrCrUrCrArArGrCrCrUrArArArUrCrCrAdGdA”, the normalised inhibition (eCFP-eYFP dual reporter) was 81.4%.
Substance “sense rUrGrGrCrUrCrUrGrUrCrUrCrUrCrUrGrCrCrAdTdT / antisense rUrGrGrCrArGrArGrArGrArCrArGrArGrCrCrAdCdC” has a normalised inhibition (eCFP-eYFP dual reporter) of 76.5%.
In the case of “sense rUrGrUrGrArCrCrUrCrCrArUrCrUrArCrUrCrUdTdT / antisense rArGrArGrUrArGrArUrGrGrArGrGrUrCrArCrAdGdG”, the normalised inhibition (eCFP-eYFP dual reporter) is reported as 96.8%.
Work on “sense rUrGrUrGrGrArCrUrCrUrGrArGrArArGrArArAdTdT / antisense rUrUrUrCrUrUrCrUrCrArGrArGrUrCrCrArCrAdAdG” yielded a normalised inhibition (eCFP-eYFP dual reporter) of 85.5%.
In the case of “sense rUrGrUrGrUrGrCrUrUrCrCrUrCrUrCrCrCrArUdTdT / antisense rArUrGrGrGrArGrArGrGrArArGrCrArCrArCrAdGdT”, the normalised inhibition (eCFP-eYFP dual reporter) is reported as 104%.
Substance “sense rUrGrUrUrCrCrUrUrGrUrGrGrArCrUrCrUrGrAdTdT / antisense rUrCrArGrArGrUrCrCrArCrArArGrGrArArCrAdTdC” has a normalised inhibition (eCFP-eYFP dual reporter) of 94.3%.
Work on “sense rUrUrGrCrCrUrCrCrCrUrUrGrArGrGrCrGrUrCdTdT / antisense rGrArCrGrCrCrUrCrArArGrGrGrArGrGrCrArAdTdC” yielded a normalised inhibition (eCFP-eYFP dual reporter) of 37.3%.
For “sense rUrUrGrCrUrCrUrCrUrGrGrArGrUrCrUrCrCrCdTdT / antisense rGrGrGrArGrArCrUrCrCrArGrArGrArGrCrArAdGdA”, the normalised inhibition (eCFP-eYFP dual reporter) was 58.4%.
For “sense rUrUrUrArGrGrGrUrGrCrCrCrArCrUrUrArGrGdTdT / antisense rCrCrUrArArGrUrGrGrGrCrArCrCrCrUrArArAdAdG”, the normalised inhibition (eCFP-eYFP dual reporter) was 48.8%.
Work on “sense rUrUrUrGrCrArGrUrUrGrGrArGrArUrUrCrArGdTdT / antisense rCrUrGrArArUrCrUrCrCrArArCrUrGrCrArArAdCdG” yielded a normalised inhibition (eCFP-eYFP dual reporter) of 48.6%.

Target: UBE2L6
Assay: reporter assay of Huesken 2005
Conditions: siRNA
In the case of “sense rArArArGrCrCrUrUrCrArArCrCrUrGrCrGrCrAdTdT / antisense rUrGrCrGrCrArGrGrUrUrGrArArGrGrCrUrUrUdCdA”, the normalised inhibition (eCFP-eYFP dual reporter) is reported as 69.8%.
For “sense rArArCrCrArArGrArUrCrUrArCrCrArCrCrCrCdTdT / antisense rGrGrGrGrUrGrGrUrArGrArUrCrUrUrGrGrUrUdGdT”, the normalised inhibition (eCFP-eYFP dual reporter) was 43.6%.
For “sense rArArCrCrUrGrCrGrCrArUrCrArGrCrUrUrCrCdTdT / antisense rGrGrArArGrCrUrGrArUrGrCrGrCrArGrGrUrUdGdA”, the normalised inhibition (eCFP-eYFP dual reporter) was 51.6%.
Work on “sense rArArCrUrGrGrArArGrCrCrUrUrGrCrArCrCrAdTdT / antisense rUrGrGrUrGrCrArArGrGrCrUrUrCrCrArGrUrUdCdT” yielded a normalised inhibition (eCFP-eYFP dual reporter) of 77.8%.
Substance “sense rArArUrGrCrCrGrArArGrArGrUrUrCrArCrCrCdTdT / antisense rGrGrGrUrGrArArCrUrCrUrUrCrGrGrCrArUrUdCdT” has a normalised inhibition (eCFP-eYFP dual reporter) of 51.6%.
“sense rArCrArCrArGrArArUrCrCrGrGrArGrCrUrGrUdTdT / antisense rArCrArGrCrUrCrCrGrGrArUrUrCrUrGrUrGrUdCdA” gave a normalised inhibition (eCFP-eYFP dual reporter) of 85.4%.
For “sense rArCrCrArArGrArUrCrUrArCrCrArCrCrCrCrAdTdT / antisense rUrGrGrGrGrUrGrGrUrArGrArUrCrUrUrGrGrUdTdG”, the normalised inhibition (eCFP-eYFP dual reporter) was 90.8%.
In the case of “sense rArCrCrArCrCrCrCrArArCrGrUrGrGrArCrGrAdTdT / antisense rUrCrGrUrCrCrArCrGrUrUrGrGrGrGrUrGrGrUdAdG”, the normalised inhibition (eCFP-eYFP dual reporter) is reported as 64.9%.
In the case of “sense rArCrCrCrGrArCrCrArArCrCrUrCrCrCrUrArCdTdT / antisense rGrUrArGrGrGrArGrGrUrUrGrGrUrCrGrGrGrUdAdG”, the normalised inhibition (eCFP-eYFP dual reporter) is reported as 64%.
Substance “sense rArCrCrUrCrGrCrUrGrArCrCrUrGrCrUrGrArCdTdT / antisense rGrUrCrArGrCrArGrGrUrCrArGrCrGrArGrGrUdCdC” has a normalised inhibition (eCFP-eYFP dual reporter) of 58.6%.
Work on “sense rArCrCrUrGrCrGrCrArUrCrArGrCrUrUrCrCrCdTdT / antisense rGrGrGrArArGrCrUrGrArUrGrCrGrCrArGrGrUdTdG” yielded a normalised inhibition (eCFP-eYFP dual reporter) of 70.9%.
Work on “sense rArCrCrUrGrCrGrGrArArCrCrUrGrUrCrCrArGdTdT / antisense rCrUrGrGrArCrArGrGrUrUrCrCrGrCrArGrGrUdAdT” yielded a normalised inhibition (eCFP-eYFP dual reporter) of 73.8%.
Substance “sense rArCrUrUrGrCrCrArArGrUrCrCrUrGrGrArGrGdTdT / antisense rCrCrUrCrCrArGrGrArCrUrUrGrGrCrArArGrUdCdT” has a normalised inhibition (eCFP-eYFP dual reporter) of 31.8%.
“sense rArGrCrGrArUrGrArUrGrCrCrArArUrGrUrCrCdTdT / antisense rGrGrArCrArUrUrGrGrCrArUrCrArUrCrGrCrUdGdG” gave a normalised inhibition (eCFP-eYFP dual reporter) of 87.3%.
“sense rArGrGrGrArGrCrCrCrCrUrGrCrGrGrArUrGrGdTdT / antisense rCrCrArUrCrCrGrCrArGrGrGrGrCrUrCrCrCrUdGdA” gave a normalised inhibition (eCFP-eYFP dual reporter) of 60.1%.
“sense rArGrUrArUrCrCrGrUrUrCrArArGrCrCrUrCrCdTdT / antisense rGrGrArGrGrCrUrUrGrArArCrGrGrArUrArCrUdCdC” showed a normalised inhibition (eCFP-eYFP dual reporter) of 53.7%.
Substance “sense rArGrUrUrCrArCrCrCrUrCrCrGrArUrUrCrGrGdTdT / antisense rCrCrGrArArUrCrGrGrArGrGrGrUrGrArArCrUdCdT” has a normalised inhibition (eCFP-eYFP dual reporter) of 55.3%.
For “sense rArUrCrArGrCrArGrUrGrArGrArArCrUrGrGrAdTdT / antisense rUrCrCrArGrUrUrCrUrCrArCrUrGrCrUrGrArUdGdA”, the normalised inhibition (eCFP-eYFP dual reporter) was 82.9%.
Substance “sense rArUrCrArGrCrUrUrCrCrCrGrCrCrGrGrArGrUdTdT / antisense rArCrUrCrCrGrGrCrGrGrGrArArGrCrUrGrArUdGdC” has a normalised inhibition (eCFP-eYFP dual reporter) of 52.3%.
Substance “sense rArUrGrGrArCrCrUrCrGrCrUrGrArCrCrUrGrCdTdT / antisense rGrCrArGrGrUrCrArGrCrGrArGrGrUrCrCrArUdCdC” has a normalised inhibition (eCFP-eYFP dual reporter) of 43.8%.
In the case of “sense rArUrUrCrArCrArArCrCrArArGrArUrCrUrArCdTdT / antisense rGrUrArGrArUrCrUrUrGrGrUrUrGrUrGrArArUdTdT”, the normalised inhibition (eCFP-eYFP dual reporter) is reported as 51%.
In the case of “sense rCrArArArUrUrCrArCrArArCrCrArArGrArUrCdTdT / antisense rGrArUrCrUrUrGrGrUrUrGrUrGrArArUrUrUrGdAdT”, the normalised inhibition (eCFP-eYFP dual reporter) is reported as 85.9%.
